Here are results for two compounds from patent US4925869A, “Therapeutic agents” (Imperial Chemical Industries PLC, priority 1986, dated 1990).

Format in all cases: cell-based
One test concerns human platelets. Description: inhibition of arachidonic acid induced aggregation of human platelets. The text has this:
The beneficial effects of combining one of the novel TXA2 antagonists of formula I defined hereinabove with a TXA2 synthetase inhibitor may be illustrated in vitro, for example by evaluating their effects in inhibiting arachidonic acid induced aggregation of human platelets, using standard procedures well known in the art.

In the next test the target is T1, rat aortal strip (Rattus norvegicus, UniProt P34978).
T1 construct: the rat aortal strip model developed by Kennedy et alia; from tissue; host or cells: rat aorta strip
T1 sequence (P34978 1-341): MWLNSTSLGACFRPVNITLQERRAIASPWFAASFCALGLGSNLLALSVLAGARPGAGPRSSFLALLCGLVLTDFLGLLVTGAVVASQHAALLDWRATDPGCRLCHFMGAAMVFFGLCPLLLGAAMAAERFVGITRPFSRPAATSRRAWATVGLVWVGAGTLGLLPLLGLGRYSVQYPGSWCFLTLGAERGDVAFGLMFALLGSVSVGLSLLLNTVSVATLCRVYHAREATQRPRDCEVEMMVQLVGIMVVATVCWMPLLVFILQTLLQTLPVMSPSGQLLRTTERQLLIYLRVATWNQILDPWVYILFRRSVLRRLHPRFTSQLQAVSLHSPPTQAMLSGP
Description: rat aortal strip model, antagonism of the TXA2 mimetic U46619 (test (a)). The following applies: agonist U46619, procedure (a), read-out: pA2 (converted). The text has this:
As stated earlier, the compounds of formula I are antagonists of one or more of the actions of TXA2, for example certain of its actions on blood platelets, the vasculature and/or the lung.
(a) The rabbit aortal strip model devised by Piper and Vane (Nature, 1969, 223, 29-35) or the rat aortal strip model developed by Kennedy et alia (Prostaglandins, 1982, 24, 667-689), using as agonist the TXA2 mimetic agent known as U46619 (described by R. L. Jones et alia. in "Chemistry, Biochemistry and Pharmacological Activity of Prostanoids" edited by S. M. Roberts and F. Scheinmann, at page 211, Pergamon Press, 1979);

The target in test [1] is T2, human, citrated platelet rich plasma (Homo sapiens, UniProt P21731).
T2 construct: aggregating human, citrated platelet rich plasma; from tissue; host or cells: human citrated platelet rich plasma (native platelets)
T2 sequence (P21731 1-343): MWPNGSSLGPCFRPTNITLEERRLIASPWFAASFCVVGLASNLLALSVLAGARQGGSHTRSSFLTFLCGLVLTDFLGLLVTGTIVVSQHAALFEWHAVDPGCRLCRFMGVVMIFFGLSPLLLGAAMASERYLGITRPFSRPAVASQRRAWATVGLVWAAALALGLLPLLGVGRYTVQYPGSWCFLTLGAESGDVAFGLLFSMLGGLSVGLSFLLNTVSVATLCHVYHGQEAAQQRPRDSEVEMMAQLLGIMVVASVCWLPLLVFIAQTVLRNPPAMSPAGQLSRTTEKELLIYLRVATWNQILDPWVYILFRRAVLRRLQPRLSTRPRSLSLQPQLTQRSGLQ
Description: blood platelet aggregation test, U46619-induced aggregation of human citrated platelet rich plasma (test (b)). The following applies: U46619, procedure (b). The text has this: (b) a blood platelet aggregation test based on that described by Born (Nature, 1962, 194, 927-929) and involving:
(i) aggregating human, citrated platelet rich plasma by addition of the TXA2 mimetic agent U46619 so that a dose-response curve is generated:
(ii) generating a dose-response curve for U46619 stimulated platelet aggregation in the presence of increasing amounts of test compound (generally in the range, 10^-5 M to 10^-10 M); and
(iii) calculating a KB value indicating potency of TXA2 antagonism for the test compound, averaged over several concentrations, from the calculated 50% response value for U46619 aggregation in the presence and absence of test compound: and (c) a bronchoconstriction test involving measuring the inhibition by test compound of the bronchoconstriction induced in the Konzett-Rossler, anaesthetised guinea-pig model (as modified by Collier and James, Brit. J. Pharmacol., 1967, 30, 283-307) by intravenous administration of the TXA2 mimetic agent, U46619 and involving: […]

In the case of `O=C(O)c1ccc(OCCn2ccnc2)cc1` [dazoxiben, reference compound], the “inhibition of arachidonic acid induced aggregation of human platelets” value in the test on human platelets (tested alone at 10^-4 M) is “no significant inhibition”.

`CC(C)(Oc1ccccc1)[C@H]1OC[C@@H](C/C=C\CCC(=O)O)[C@@H](c2ccccc2O)O1` (relative stereo) [Example 6, 4(Z) 6 ([2,4,5 cis]4-o-hydroxyphenyl-2-[1-methyl-1-phenoxyethyl] -1,3-dioxan-5-yl)hexenoic acid]: in the test on human platelets (tested alone at 10^-9 M), the “inhibition of arachidonic acid induced aggregation of human platelets” value is recorded as “no significant inhibition”. Besides, the Kb was 0.195 nM on rat aortal strip and 17.5 nM in test [1].
